molecular target: T1, human thyroid receptor beta ligand-binding domain (THR-beta) (Homo sapiens, UniProt P10828); assay: THR Biochemical Assay (Assay 1): TR-FRET thyroid receptor beta coactivator assay; conditions: TR-FRET SRC2-2 coactivator recruitment, GST-tagged THR-beta LBD 1 nM, 1 hr at rt; read-out: Assay 1 (EC50, THR-beta agonist activity)
T1 sequence (P10828 217-461 limits assumed): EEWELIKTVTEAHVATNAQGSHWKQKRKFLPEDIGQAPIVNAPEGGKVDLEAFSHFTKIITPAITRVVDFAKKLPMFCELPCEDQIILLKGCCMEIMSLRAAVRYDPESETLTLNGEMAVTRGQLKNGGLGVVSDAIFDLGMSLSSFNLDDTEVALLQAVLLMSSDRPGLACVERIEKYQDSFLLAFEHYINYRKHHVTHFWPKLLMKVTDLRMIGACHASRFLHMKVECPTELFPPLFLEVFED
Source text: THR Biochemical Assay (Assay 1)
The TR-FRET thyroid receptor beta coactivator assay is to be used. The assay uses a terbium-labeled anti-GST antibody, a glutathione-S-transferase (GST) tagged human thyroid receptor, beta or alpha, ligand-binding domain (LBD), and a fluorescein labeled SRC2-2 coactivator peptide. The antibody interacts with the LBD, where the agonist will also bind, resulting in increased affinity for the SRC2-2 coactivator peptide causing energy transfer of the acceptor fluorophore and a FRET emission shift from 495 to 520 nm. The energy transfer is detected as an increase in the fluorescence emission of the fluorescein acceptor, and a decrease in the fluorescence emission of the terbium donor. The assay is to be performed in a 384-well black plate in a final volume of 20 μL. Serial dilution of various test agonists will be performed in DMSO (1% final DMSO concentration) and added to the test plate. Thyroid receptor beta LBD will usually be added to the plate at a final concentration of 1 nM, followed by the mixture of the fluorescein labeled SRC2-2 coactivator peptide, and the terbium-labeled anti-GST antibody at final concentrations of 200 nM and 2 nM respectively. The assay will often be incubated for 1 hr at rt protected from light. The TR-FRET will then be measured on a Victor multilabel reader (Perkin Elmer) using an excitation wavelength of 340 nm with emission filters of 495 nm and 520 nm. The assay will be quantified by expressing a ratio (520:495) of the intensities, and the resulting activation curves; EC50 values are to be generated using a sigmoidal dose response (variable slope) equation in GraphPad™ Prism 8.0.

EC50	Compound
< 50 nM	Cc1cc(Oc2c(Cl)cc(-n3nc(N)c(=O)[nH]c3=O)cc2Cl)cn(C(C)C)c1=O [Example 19, 6-amino-2-(3,5-dichloro-4-((1-isopropyl-5-methyl-6-oxo-1,6-dihydropyridin-3-yl)oxy)phenyl)-1,2,4-triazine-3,5(2H,4H)-dione]
< 50 nM	Nc1nn(-c2cc(Cl)c(Oc3ccc(=O)n(C4CCC4)c3)c(Cl)c2)c(=O)[nH]c1=O [Example 30, 6-amino-2-(3,5-dichloro-4-((1-cyclobutyl-6-oxo-1,6-dihydropyridin-3-yl)oxy)phenyl)-1,2,4-triazine-3,5(2H,4H)-dione]
50 to 250 nM	CC(C)n1cc(Oc2c(Cl)cc(-n3nc(N)c(=O)[nH]c3=O)cc2Cl)ccc1=O [Compound 8, 6-amino-2-(3,5-dichloro-4-((1-isopropyl-6-oxo-1,6-dihydropyridin-3-yl)oxy)phenyl)-1,2,4-triazine-3,5(2H,4H)-dione]
250 to 1000 nM	Nc1nn(-c2cc(Cl)c(Oc3c[nH]c(=O)c(C(=O)NC4CC(F)(F)C4)c3)c(Cl)c2)c(=O)[nH]c1=O [Example 27, 5-(4-(6-Amino-3,5-dioxo-4,5-dihydro-1,2,4-triazin-2(3H)-yl)-2,6-dichlorophenoxy)-N-(3,3-difluorocyclobutyl)-2-oxo-1,2-dihydropyridine-3-carboxamide]
250 to 1000 nM	CC1CCc2c(Oc3c(Cl)cc(-n4nc(N)c(=O)[nH]c4=O)cc3Cl)c[nH]c(=O)c21 (stereo not drawn) [Example 15, 6-amino-2-[3,5-dichloro-4-[(7-methyl-1-oxo-2,5,6,7-tetrahydrocyclopenta[c]pyridin-4-yl)oxy]phenyl]-1,2,4-triazine-3,5-dione]
< 50 nM	CC1CCc2c(Oc3c(Cl)cc(-n4nc(N)c(=O)[nH]c4=O)cc3Cl)ccc(=O)n21 (stereo not drawn) [Example 36, 6-amino-2-(3,5-dichloro-4-((3-methyl-5-oxo-1,2,3,5-tetrahydroindolizin-8-yl)oxy)phenyl)-1,2,4-triazine-3,5(2H,4H)-dione]
250 to 1000 nM	CN(C)c1cc(Oc2c(Cl)cc(-n3nc(N)c(=O)[nH]c3=O)cc2Cl)c[nH]c1=O [Compound 13, 6-amino-2-(3,5-dichloro-4-((5-(dimethylamino)-6-oxo-1,6-dihydropyridin-3-yl)oxy)phenyl)-1,2,4-triazine-3,5(2H,4H)-dione]
50 to 250 nM	Nc1nn(-c2cc(Cl)c(Oc3ccc(=O)n(C4CC4)c3)c(Cl)c2)c(=O)[nH]c1=O [Example 31, 6-amino-2-(3,5-dichloro-4-((1-cyclopropyl-6-oxo-1,6-dihydropyridin-3-yl)oxy)phenyl)-1,2,4-triazine-3,5(2H,4H)-dione]
50 to 250 nM	CC(C)n1cc(Oc2c(Cl)cc(-n3nc(N)c(=O)[nH]c3=O)cc2Cl)cc(F)c1=O [Example 22, 6-amino-2-(3,5-dichloro-4-((5-fluoro-1-isopropyl-6-oxo-1,6-dihydropyridin-3-yl)oxy)phenyl)-1,2,4-triazine-3,5(2H,4H)-dione]
< 50 nM	Nc1nn(-c2cc(Cl)c(Oc3c[nH]c(=O)c(C4CCC4)c3)c(Cl)c2)c(=O)[nH]c1=O [Example 24, 6-amino-2-(3,5-dichloro-4-((5-cyclobutyl-6-oxo-1,6-dihydropyridin-3-yl)oxy)phenyl)-1,2,4-triazine-3,5(2H,4H)-dione]
< 50 nM	CC(C)c1cc(Oc2c(Cl)cc(-n3nc(N)c(=O)[nH]c3=O)cc2Cl)cn(C)c1=O [Example 14, 6-amino-2-(3,5-dichloro-4-((5-isopropyl-1-methyl-6-oxo-1,6-dihydropyridin-3-yl)oxy)phenyl)-1,2,4-triazine-3,5(2H,4H)-dione]
< 50 nM	Cc1c(Oc2c(Cl)cc(-n3nc(N)c(=O)[nH]c3=O)cc2Cl)c[nH]c(=O)c1C(C)C [Example 18, 6-amino-2-(3,5-dichloro-4-((5-isopropyl-4-methyl-6-oxo-1,6-dihydropyridin-3-yl)oxy)phenyl)-1,2,4-triazine-3,5(2H,4H)-dione]
< 50 nM	CC1CCc2c(Oc3c(Cl)cc(-n4nc(N)c(=O)[nH]c4=O)cc3Cl)ccc(=O)n21 (single isomer, unassigned) [Example 37, 6-amino-2-(3,5-dichloro-4-((3-methyl-5-oxo-1,2,3,5-tetrahydroindolizin-8-yl)oxy)phenyl)-1,2,4-triazine-3,5(2H,4H)-dione]
< 50 nM	CC(C)c1cc(Oc2c(Cl)cc(-n3nc(N)c(=O)[nH]c3=O)cc2Cl)c[nH]c1=O [Compound 1, 6-amino-2-(3,5-dichloro-4-((5-isopropyl-6-oxo-1,6-dihydropyridin-3-yl)oxy)phenyl)-1,2,4-triazine-3,5(2H,4H)-dione]
50 to 250 nM	CC(C)n1cc(Oc2c(Cl)cc(-n3nc(N)c(=O)[nH]c3=O)cc2Cl)cc(Cl)c1=O [Example 23, 6-amino-2-(3,5-dichloro-4-((5-chloro-1-isopropyl-6-oxo-1,6-dihydropyridin-3-yl)oxy)phenyl)-1,2,4-triazine-3,5(2H,4H)-dione]
50 to 250 nM	CC1CCc2c(Oc3c(Cl)cc(-n4nc(N)c(=O)[nH]c4=O)cc3Cl)ccc(=O)n21 (single isomer, unassigned) [Example 38, 6-amino-2-(3,5-dichloro-4-((3-methyl-5-oxo-1,2,3,5-tetrahydroindolizin-8-yl)oxy)phenyl)-1,2,4-triazine-3,5(2H,4H)-dione]

Continued, molecule first:

Compound	EC50
CC(C)n1cc(Oc2c(Cl)cc(NC(=O)c3noc(=O)[nH]3)cc2Cl)ccc1=O [Compound 6, N-(3,5-dichloro-4-((1-isopropyl-6-oxo-1,6-dihydropyridin-3-yl)oxy)phenyl)-5-oxo-4,5-dihydro-1,2,4-oxadiazole-3-carboxamide]	50 to 250 nM
CNC(=O)c1cc(Oc2c(Cl)cc(NC(=O)c3noc(=O)[nH]3)cc2Cl)c[nH]c1=O [Example 28, N-(3,5-dichloro-4-((5-(methylcarbamoyl)-6-oxo-1,6-dihydropyridin-3-yl)oxy)phenyl)-5-oxo-4,5-dihydro-1,2,4-oxadiazole-3-carboxamide]	1000 to 25000 nM
CC(C)c1cc(Oc2c(Cl)cc(-n3ncc(=O)[nH]c3=O)cc2Cl)c[nH]c1=O [Compound 3, 2-(3,5-dichloro-4-((5-isopropyl-6-oxo-1,6-dihydropyridin-3-yl)oxy)phenyl)-1,2,4-triazine-3,5(2H,4H)-dione]	50 to 250 nM
CC(n1cc(Oc2c(Cl)cc(-n3nc(N)c(=O)[nH]c3=O)cc2Cl)ccc1=O)C(F)(F)F (stereo not drawn) [Example 32, 6-amino-2-(3,5-dichloro-4-((6-oxo-1-(1,1,1-trifluoropropan-2-yl)-1,6-dihydropyridin-3-yl)oxy)phenyl)-1,2,4-triazine-3,5(2H,4H)-dione]	50 to 250 nM
CC(C)c1cc(Oc2c(Cl)cc(NC(=O)c3noc(=O)[nH]3)cc2Cl)c[nH]c1=O [Compound 5, N-(3,5-dichloro-4-((5-isopropyl-6-oxo-1,6-dihydropyridin-3-yl)oxy)phenyl)-5-oxo-4,5-dihydro-1,2,4-oxadiazole-3-carboxamide]	< 50 nM
CC1CCc2c(Oc3c(Cl)cc(-n4nc(C#N)c(=O)[nH]c4=O)cc3Cl)ccc(=O)n21 (stereo not drawn) [Example 35, 2-(3,5-dichloro-4-((3-methyl-5-oxo-1,2,3,5-tetrahydroindolizin-8-yl)oxy)phenyl)-3,5-dioxo-2,3,4,5-tetrahydro-1,2,4-triazine-6-carbonitrile]	< 50 nM
CC(C)n1cc(Oc2c(Cl)cc(-n3nc(C#N)c(=O)[nH]c3=O)cc2Cl)ccc1=O [Compound 7, 2-(3,5-dichloro-4-((1-isopropyl-6-oxo-1,6-dihydropyridin-3-yl)oxy)phenyl)-3,5-dioxo-2,3,4,5-tetrahydro-1,2,4-triazine-6-carbonitrile]	< 50 nM
CC(C)c1cc(Oc2c(Cl)cc(-c3nn(C)c(=O)[nH]c3=O)cc2Cl)c[nH]c1=O [Compound 10, 6-(3,5-dichloro-4-((5-isopropyl-6-oxo-1,6-dihydropyridin-3-yl)oxy)phenyl)-2-methyl-1,2,4-triazine-3,5(2H,4H)-dione]	50 to 250 nM
CC(C)c1cc(Oc2c(Cl)cc(NC(=O)C(=O)O)cc2Cl)c[nH]c1=O [Compound 4, 2-((3,5-dichloro-4-((5-isopropyl-6-oxo-1,6-dihydropyridin-3-yl)oxy)phenyl)amino)-2-oxoacetic acid]	50 to 250 nM
Cc1cc(-n2nc(N)c(=O)[nH]c2=O)cc(C)c1Oc1c[nH]c(=O)c(C(C)C)c1 [Compound 9, 6-amino-2-(4-((5-isopropyl-6-oxo-1,6-dihydropyridin-3-yl)oxy)-3,5-dimethylphenyl)-1,2,4-triazine-3,5(2H,4H)-dione]	50 to 250 nM
Cc1cc(-n2nc(N)c(=O)[nH]c2=O)cc(C)c1Cc1c[nH]c(=O)c(C(C)C)c1 [Example 33, 6-amino-2-(4-((5-isopropyl-6-oxo-1,6-dihydropyridin-3-yl)methyl)-3,5-dimethylphenyl)-1,2,4-triazine-3,5(2H,4H)-dione]	250 to 1000 nM
